In patent US20120121691A1, “Method for Increasing the Production of a Specific ACYL-Chain Dihydroceramide(s) for Improving the Effectiveness of Cancer Treatments” (priority 2010, published 2012):

Legend:
COG-LL-317 = test: DIMSCAN cytotoxicity assay, COG-LL-317; format: cell-based; conditions: COG-LL-317, sphinganine 1 μM, GT-11 0.5 μM, 48 hours
Source text: Cell culture. The pre-T acute lymphoblastic leukemia cell lines MOLT-4 and CCRF-CEM, small cell lung cancer cell line NCI-H146, non-small cell lung cancer cell line NCI-H1792, colon cancer cell lines LoVo and HT-29, and breast cancer cell line MCF-7, were purchased from American Type Culture Collection, Manassas, Va., and grown at 20%/5% and 5%/5%, respectively. COG-LL-317 and COG-LL-332 pre-T acute lymphoblastic leukemia cell lines were obtained from the TTUHSC Cancer Center Cell Repository and grown at 5%/5%. Cell line identities were verified by short tandem repeat analysis and mycoplasma testing was performed. Cell lines were maintained in RPMI-1640 medium supplemented with 10% fetal bovine serum (FBS, Invitrogen) in humidified, 37° C. incubators. For all experiments, ALL cell lines were seeded at […] in RPMI-1640 medium supplemented with 15% fetal bovine serum. Solid tumor cell lines were plated at 5×cells/mL in RPMI-1640 medium supplemented with 10% fetal bovine serum.
Cytotoxicity Assay. Cytoxicity is determined using the DIMSCAN assay system (R. Proffitt et al., Cytometry 24, 204-213 (1996); T. Frgala et al., Proc. AACR, 36, 303 (1995). The system employs digital imaging microscopy to quantify viable cells, which selectively accumulate fluorescein diacetate to become brightly fluorescent. The system is capable of measuring cytotoxicity over a 4-5 log dynamic range by quenching the residual fluorescence of dead and dying cells with eosin Y and quantifying the total fluorescence of viable cells using digital thresholding. Measured fluorescence is directly proportionate to the number of viable cells. A comparison of the total fluorescence of a drug-treated cell population to the fluorescence of a similar number of untreated cells yields a survival fraction. […]
The addition of C22:0-fatty acid, but not C18:0 or C22:1 fatty acids, increased cytotoxicity (FIGS. 7A-7F). […] Cytotoxicity was measured using DIMSCAN, and data was normalized to control and plotted as survival fraction (y-axis). […]

[1] = test system: intracellular sphingolipids, COG-LL-332; test: LC/MS/MS analysis of intracellular sphingolipids, COG-LL-332; format: cell-based, human; conditions: for increase in corresponding dihydroceramide over sphinganine+GT-11 alone: COG-LL-332, fatty acid with sphinganine+GT-11, six hours, P<0.05
Method: LC/MS/MS analysis of intracellular sphingolipids. Sphingolipids were separated using an Agilent 1200 HPLC (LC) and determined by ESI/MS/MS performed on a AB SCIEX 4000 QTRAP Hybrid Triple Quadrupole/Linear Ion Trap mass spectrometer (MS), operating in a multiple reaction monitoring positive ionization mode as described previously with moderate modifications (25). Briefly, 50 μL of a solution (1 μM) of internal sphingolipid standards (including -sphingosine, -sphinganine, -sphingosine-1-phosphate, and -ceramide) was added to each cell pellet sample. Lipids of each sample were extracted twice with 2 mL of the ethyl acetate/isopropyl alcohol/water (60:28:12; v:v) solvent system. Supernatants were transferred to glass tubes (Kimble Chase) and evaporated under air (10 PSI) at 40° C. After reconstitution in methanol (4 mL), 1 ml of each sample was separated for the determination of lipid phosphate. Remaining sample (3 mL) was dried and used for sphingolipid quantification. For ESI/MS/MS, the dried lipid sample was dissolved in mobile phase A. Samples were injected (10 μL) and separated on a Spectra C8SR, 150×3.0 mm, 3-μm particle size column using gradient-elution (mobile phase A/B, prepared as previously described).
Data acquisition, peak integration and analyte quantitation were performed using ABI/SCIEX Analyst 1.4.2 Software. Sphingolipid data were normalized to lipid phosphate as previously described (26). Briefly, samples were dried under air (10 PSI) and lipids were extracted using the method of Bligh and Dyer (27). Of importance for phosphate assay, only Kimble Chase disposable borosilicate tubes were used for minimal sample contamination. Organic phase was transferred to glass tubes and a known volume was separated to a new tube and dried at 80° C. Phosphate standards and dried samples were then heated with ashing buffer (water:10 N:70% [40:9:1]) at 160° C. overnight. Samples were then incubated with ammonium molybdate and ascorbic acid as previously described, and absorbance ([…]) was read using a SpectraMax.
Cells were treated for 48 hours with Sa (0-4 μM)+/−GT-11 (0.5 μM) with or without C18:0-, C22:0- or C22:1-fatty acids. Cytotoxicity was measured using DIMSCAN, and data was normalized to control and plotted as survival fraction (y-axis). Gray and white symbols represent long and very long chain fatty acids, respectively. Gray lines encompass data used for sphingolipid correlation analysis with cytotoxicity. Datum point, mean; error bar, SEM. […]
Cytotoxicity was measured using DIMSCAN, and data was normalized to control and plotted as survival fraction (y-axis).

| SMILES | effect of fatty acid co-treatment on cytotoxicity of sphinganine with GT-11 (COG-LL-317) | increase of C22:0-dihydroceramide compared to 4-HPR alone ([1]; COG-LL-332, fatty acid with 4-HPR 1.1 μM, six hours, P<0.001) | increase of C22:0-dihydroceramide over sphinganine+GT-11 alone ([1]; COG-LL-332, fatty acid with sphinganine 1 μM plus GT-11 0.5 μM, six hours, P<0.001) | increase in corresponding dihydroceramide over sphinganine+GT-11 alone [1] |
| --- | --- | --- | --- | --- |
| CCCCCCCCCCCCCCCCCCCCCC(=O)O [C22:0-fatty acid] | increased | 8 fold | 57 fold | significant increases |
| CCCCCCCC/C=C\CCCCCCCCCCCC(=O)O [C22:1-fatty acid] | not |  |  | significant increases |
